Counter-ions that a name gives are not always drawn.
How the values were obtained:
[1] = target: T1, Adrenergic β2 (Homo sapiens, UniProt P07550); assay: Adrenergic β2 mediated cAMP production in H292 cells (AlphaScreen cAMP detection); type: cell-based; design: key to β2 Int Act: fraction of formoterol maximum activity (formoterol = 1); conditions: for β2 Int Act: Intrinsic Activity as a fraction relative to the maximum activity determined for formoterol; for EC50: cAMP production, 60 minutes at room temperature, 300 μM rolipram, read-out: β2 pEC50 (converted)
T1 construct: Adherent H292 cells were removed from tissue culture flasks; endogenous in cells; host or cells: H292 cells
Procedure: Adrenergic β2 Mediated cAMP Production
H292 cells were grown in 225 cm2 flasks incubator at 37° C., 5% CO2 in RPMI medium containing, 10% (v/v) FBS (foetal bovine serum) and 2 mM L-glutamine.
Adherent H292 cells were removed from tissue culture flasks by treatment with Accutase™ cell detachment solution for 15 minutes. Flasks were incubated for 15 minutes in a humidified incubator at 37° C., 5% CO2. Detached cells were re-suspended in RPMI media (containing 10% (v/v) FBS and 2 mM L-glutamine) at 1×10^6 cells per mL. 10000 cells in 100 μL were added to each well of a tissue-culture-treated 96-well plate and the cells incubated overnight in a humidified incubator at 37° C., 5% CO2. The culture media was removed and cells were washed twice with 100 μL assay buffer and replaced with 50 μL assay buffer (HBSS solution containing 10 mM HEPES pH7.4 and 5 mM glucose). Cells were rested at room temperature for 20 minutes after which time 25 μL of rolipram (1.2 mM made up in assay buffer containing 2.4% (v/v) dimethylsulphoxide) was added. Cells were incubated with rolipram for 10 minutes after which time test compounds were added and the cells were incubated for 60 minutes at room temperature. The final rolipram concentration in the assay was 300 μM and final vehicle concentration was 1.6% (v/v) dimethylsulphoxide. The reaction was stopped by removing supernatants, washing once with 100 μL assay buffer and replacing with 50 μL lysis buffer. The cell monolayer was frozen at −80° C. for 30 minutes (or overnight).
AlphaScreen™ cAMP Detection
The concentration of cAMP (cyclic adenosine monophosphate) in the cell lysate was determined using AlphaScreen™ methodology. The frozen cell plate was thawed for 20 minutes on a plate shaker then 10 μL of the cell lysate was transferred to a 96-well white plate. 40 μL of mixed AlphaScreen™ detection beads pre-incubated with biotinylated cAMP, was added to each well and the plate incubated at room temperature for 10 hours in the dark. The AlphaScreen™ signal was measured using an EnVision spectrophotometer (Perkin-Elmer Inc.) with the recommended manufacturer's settings. cAMP concentrations were determined by reference to a calibration curve determined in the same experiment using standard cAMP concentrations. Concentration response curves for agonists were constructed and data was fitted to a four parameter logistic equation to determine both the pEC50 and Intrinsic Activity. Intrinsic Activity was expressed as a fraction relative to the maximum activity determined for formoterol in each experiment.

[2] = target: T2, recombinant human Dopamine Subtype D2s receptors (Homo sapiens, UniProt P14416); assay: Dopamine D2 selectivity assay, [3H]-spiperone binding to membranes; conditions: inhibition of [3H]-spiperone binding, read-out: D2 bind pIC50 (converted)
T2 construct: purchased Perkin Elmer
Procedure: (§1) Membranes containing recombinant human Dopamine Subtype D2s receptors were obtained from Perkin Elmer. These were diluted in Assay Buffer (50 mM HEPES, 1 mM EDTA, 120 mM NaCl, 0.1% gelatin, pH 7.4) to provide a final concentration of membranes that gave a clear window between maximum and minimum specific binding.
(§2) Assays were performed in U-bottomed 96-well polypropylene plates. 30 μL [^3H]-spiperone (0.16 nM final concentration) and 30 μL of test compound (10× final concentration) were added to each test well. For each assay plate 8 replicates were obtained for [^3H]-spiperone binding in the presence of 30 μL vehicle (10% (v/v) DMSO in Assay Buffer; defining maximum binding) or 30 μL Haloperidol (10 μM final concentration; defining non-specific binding (NSB)). Membranes were then added to achieve a final volume of 300 μL. The plates were incubated for 2 hours at room temperature and then filtered onto PEI coated GF/B filter plates, pre-soaked for 1 hour in Assay Buffer, using a 96-well plate Tomtec cell harvester. Five washes with 250 μL wash buffer (50 mM HEPES, 1 mM EDTA, 120 mM NaCl, pH 7.4) were performed at 4° C. to remove unbound radioactivity. The plates were dried then sealed from underneath using Packard plate sealers and MicroScint-0 (50 μL) was added to each well. The plates were sealed (TopSeal A) and filter-bound radioactivity was measured with a scintillation counter (TopCount, Packard BioScience) using a 3-minute counting protocol.
(§3) Total specific binding (B0) was determined by subtracting the mean NSB from the mean maximum binding. NSB values were also subtracted from values from all other wells. […] Data was fitted to a four parameter logistic equation to determine the compound potency, which was expressed as pIC50 (negative log molar concentration inducing 50% inhibition of [^3H]-spiperone binding).

[3] = target: T3, recombinant human adrenergic beta 1 receptors (Homo sapiens, UniProt P08588); assay: Adrenergic β1 selectivity assay, [125I]-Iodocyanopindolol binding to membranes; conditions: inhibition of [125I]-Iodocyanopindolol binding, read-out: β1 bind pIC50 (converted)
T3 construct: purchased Euroscreen
Procedure: as §1, with “adrenergic beta 1” for “Dopamine Subtype D2s”, “Euroscreen.” for “Perkin Elmer.”
as §2, with “10” for “30”, “[^125I]-Iodocyanopindolol (0.036” for “[^3H]-spiperone (0.16”, “[^125I]-Iodocyanopindolol” for “[^3H]-spiperone”, “Propranolol” for “Haloperidol”, “100” for “300”, “MicroScint-O” for “MicroScint-0”
as §3, with “[^125I]-Iodocyanopindolol” for “[^3H]-spiperone”

T2 sequence (P14416 1-414 isoform P14416-2): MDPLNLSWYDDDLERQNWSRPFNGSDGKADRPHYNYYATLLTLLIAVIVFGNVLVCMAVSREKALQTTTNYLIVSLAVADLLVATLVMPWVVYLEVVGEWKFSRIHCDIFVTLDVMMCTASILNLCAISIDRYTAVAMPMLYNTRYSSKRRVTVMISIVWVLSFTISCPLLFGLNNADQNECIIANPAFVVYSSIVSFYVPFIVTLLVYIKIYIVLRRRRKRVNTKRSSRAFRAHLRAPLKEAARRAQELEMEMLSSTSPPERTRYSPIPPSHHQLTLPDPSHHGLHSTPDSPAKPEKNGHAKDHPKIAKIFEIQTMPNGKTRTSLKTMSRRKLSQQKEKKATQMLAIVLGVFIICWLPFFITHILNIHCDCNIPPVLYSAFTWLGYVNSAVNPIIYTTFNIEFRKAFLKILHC
T3 sequence (P08588 whole entry): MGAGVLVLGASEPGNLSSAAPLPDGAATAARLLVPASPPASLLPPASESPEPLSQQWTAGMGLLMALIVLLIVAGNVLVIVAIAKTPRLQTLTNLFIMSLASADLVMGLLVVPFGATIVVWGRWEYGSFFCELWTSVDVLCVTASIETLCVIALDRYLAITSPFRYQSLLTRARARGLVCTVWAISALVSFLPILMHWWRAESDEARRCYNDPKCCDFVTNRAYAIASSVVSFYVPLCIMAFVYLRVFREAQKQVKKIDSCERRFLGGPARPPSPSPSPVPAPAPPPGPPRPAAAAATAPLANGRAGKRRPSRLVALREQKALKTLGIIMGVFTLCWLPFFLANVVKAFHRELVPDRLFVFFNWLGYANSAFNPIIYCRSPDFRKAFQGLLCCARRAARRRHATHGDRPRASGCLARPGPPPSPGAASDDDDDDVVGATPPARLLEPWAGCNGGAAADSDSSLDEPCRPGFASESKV
T1 sequence (P07550 whole entry): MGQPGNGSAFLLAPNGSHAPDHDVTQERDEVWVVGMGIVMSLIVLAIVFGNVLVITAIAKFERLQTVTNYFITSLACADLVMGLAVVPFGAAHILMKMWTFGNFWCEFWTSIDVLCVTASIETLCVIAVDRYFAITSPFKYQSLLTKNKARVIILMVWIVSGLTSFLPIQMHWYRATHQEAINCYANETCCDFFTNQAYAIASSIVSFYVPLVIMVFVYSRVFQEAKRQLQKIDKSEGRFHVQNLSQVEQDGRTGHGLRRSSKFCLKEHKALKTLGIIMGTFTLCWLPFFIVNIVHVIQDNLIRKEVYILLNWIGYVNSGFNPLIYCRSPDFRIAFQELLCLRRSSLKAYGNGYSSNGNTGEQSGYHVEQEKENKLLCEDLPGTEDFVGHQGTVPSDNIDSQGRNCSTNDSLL

β2 Int Act [1]	EC50 [1] [nM]	IC50 [2] [nM]	IC50 [3] [nM]	Compound
0.92	31.6	50.1	1000	CCCC[C@@H](C)N(CCNCCc1ccc(O)c2c1OCC(=O)N2)C(=O)CCNCCc1ccc(Cl)c(Cl)c1 [Example 55, (R)-3-(3,4-Dichlorophenethylamino)-N-(hexan-2-yl)-N-(2-(2-(5-hydroxy-3-oxo-3,4-dihydro-2H-benzo[b][1,4]oxazin-8-yl)ethylamino)ethyl)propanamide bis(trifluoroacetate)]
0.95	3.16	200	> 7940	O=C1COc2c(CCNCCN(C(=O)CCNCCc3cc(F)cc(Cl)c3)C3CCCCC3)ccc(O)c2N1 [Example 41, 3-(3-Chloro-5-fluorophenethylamino)-N-cyclohexyl-N-(2-(2-(5-hydroxy-3-oxo-3,4-dihydro-2H-benzo[b][1,4]oxazin-8-yl)ethylamino)ethyl)propanamide (trifluoroacetate)]
0.79	20	79.4	3160	O=C(CCNCCc1ccc(Cl)cc1)N(CCNCCc1ccc(O)c2[nH]c(=O)ccc12)C1CCCCCC1 [Example 4, 3-(4-Chlorophenethylamino)-N-cycloheptyl-N-(2-(2-(8-hydroxy-2-oxo-1,2-dihydroquinolin-5-yl)ethylamino)ethyl)propanamide bis(trifluoroacetate)]
0.9	2	316	3160	O=C1COc2c(CCNCCN(C(=O)CCNCCc3ccc(F)c(F)c3)C3CCCCC3)ccc(O)c2N1 [Example 42, N-Cyclohexyl-3-(3,4-difluorophenethylamino)-N-(2-(2-(5-hydroxy-3-oxo-3,4-dihydro-2H-benzo[b][1,4]oxazin-8-yl)ethylamino)ethyl)propanamide bis(trifluoroacetate)]
0.96	2.51	2000	1260	O=C1COc2c(CCNCCN(C(=O)CCOCCc3ccc(F)cc3)C3CCCCC3)ccc(O)c2N1 [Example 75, N-Cyclohexyl-3-(4-fluorophenethoxy)-N-(2-(2-(5-hydroxy-3-oxo-3,4-dihydro-2H-benzo[b][1,4]oxazin-8-yl)ethylamino)ethyl)propanamide trifluoroacetate]
0.89	2	251	3160	O=C1COc2c(CCNCCN(C(=O)CCNCCc3cccc(Cl)c3)C3CCCCC3)ccc(O)c2N1 [Example 27, 3-(3-Chlorophenethylamino)-N-cyclohexyl-N-(2-(2-(5-hydroxy-3-oxo-3,4-dihydro-2H-benzo[b][1,4]oxazin-8-yl)ethylamino)ethyl)propanamide bis(trifluoroacetate)]
0.98	1.26	126	> 5010	O=C1COc2c(CCNCCN(C(=O)CCNCCc3cc(F)ccc3F)C3CCCCC3)ccc(O)c2N1 [Example 38, N-Cyclohexyl-3-(2,5-difluorophenethylamino)-N-(2-(2-(5-hydroxy-3-oxo-3,4-dihydro-2H-benzo[b][1,4]oxazin-8-yl)ethylamino)ethyl)propanamide bis(trifluoroacetate)]
0.89	2	79.4	1260	CCCC[C@@H](C)N(CCNCCc1ccc(O)c2c1OCC(=O)N2)C(=O)CCNCCc1cccc(Cl)c1 [Example 44, (R)-3-(3-Chlorophenethylamino)-N-(hexan-2-yl)-N-(2-(2-(5-hydroxy-3-oxo-3,4-dihydro-2H-benzo[b][1,4]oxazin-8-yl)ethylamino)ethyl)propanamide bis(trifluoroacetate)]
0.88	7.94	1260	> 10000	O=C(CCNCCc1cc(F)cc(F)c1)N(CCNCCc1ccc(O)c2[nH]c(=O)ccc12)C1CCCCC1 [Example 15, N-Cyclohexyl-3-(3,5-difluorophenethylamino)-N-(2-(2-(8-hydroxy-2-oxo-1,2-dihydroquinolin-5-yl)ethylamino)ethyl)propanamide bis(trifluoroacetate)]
0.89	5.01	79.4	1260	CCCC[C@@H](C)N(CCNCCc1ccc(O)c2c1OCC(=O)N2)C(=O)CCNCCc1ccc(Cl)cc1 [Example 45, (R)-3-(4-Chlorophenethylamino)-N-(hexan-2-yl)-N-(2-(2-(5-hydroxy-3-oxo-3,4-dihydro-2H-benzo[b][1,4]oxazin-8-yl)ethylamino)ethyl)propanamide bis(trifluoroacetate)]
0.86	7.94	50.1	> 10000	O=C(CCNCCc1cccc(Cl)c1)N(CCNCCc1ccc(O)c2[nH]c(=O)ccc12)C1CCCCC1 [Example 13, 3-(3-Chlorophenethylamino)-N-cyclohexyl-N-(2-(2-(8-hydroxy-2-oxo-1,2-dihydroquinolin-5-yl)ethylamino)ethyl)propanamide bis(trifluoroacetate)]
0.85	1	158	631	O=C1COc2c(CCNCCN(C(=O)CCNCCc3ccccc3)C3CCCCCC3)ccc(O)c2N1 [Example 24, N-Cycloheptyl-N-(2-(2-(5-hydroxy-3-oxo-3,4-dihydro-2H-benzo[b][1,4]oxazin-8-yl)ethylamino)ethyl)-3-(phenethylamino)propanamide bis(trifluoroacetate)]
